Assay results published in patent US5824647A, “Chemotactic wound healing peptides” (priority 1995, dated 1998).
“Also recorded” adds a separate entry of the source.

Legend:
[1] = test system: human peripheral blood monocytes; experiment: Monocyte chemotaxis in modified Boyden chambers; assay type: cell-based; settings: for monocyte chemotaxis / migration (in words): peptide in lower compartment of modified Boyden chamber; for Mean Monocytes per 20 OIF + SEM: Experiment 2, peptide in lower compartment
Text: (§1) Human peripheral blood neutrophils and monocytes, isolated from whole blood using standard techniques may also be used in the chemotaxis assays, in a manner similar to infant foreskin fibroblasts, to measure the chemotactic activity of the peptides towards inflammatory cells. Such cells may also be maintained in supplemented MEM as above, to which 5-10% FCS may be added. When using neutrophils and monocytes, instead of fibroblasts, the polycarbonate filters used in the modified Boyden chambers had pore sizes of 2 and 3 microns, respectively. As above, all assays were carried out in quadruplicate.
The following 7-mer peptides (peptides 368-374, corresponding to amino acids 368-374 of human TGF-β1): VYYVGRK (SEQ ID NO. 1), LYYIGKT (SEQ ID NO. 2), LYYVGRT (SEQ ID NO. 3), IYYVGRN (SEQ ID NO. 4) and IYYVGRT (SEQ ID NO. 5) were synthesized by the Merrifield technique, purified by HPLC, and tested at different concentrations in the same assay for their ability to stimulate chemotaxis of human peripheral blood monocytes in vitro modified Boyden chambers.

[2] = test system: Human peripheral blood neutrophils; experiment: Neutrophil chemotaxis in modified Boyden chambers; assay type: cell-based; settings: peptide in lower compartment of modified Boyden chamber
Text: as §1

fibroblasts = experiment: HLA-DR, fibroblast effects; assay type: cell-based; design: key: NE = No Effect; settings: Table II summary
[3] = test system: infant foreskin fibroblasts; experiment: Collagen production by fibroblasts (modified Peterofsky-Diegelman assay); assay type: cell-based, human; settings: [3H]proline incorporation into collagenase-sensitive protein
Procedure: The peptides of the invention were also found to stimulate collagen production by fibroblasts. Collagen production by fibroblasts in response to the peptides of the present invention was measured utilizing a modified Peterofsky-Diegelman assay. The assay is used to determine whether the peptides of the invention stimulate or inhibit collagen production by fibroblasts.
Low passage (4-12 subpassages) infant foreskin fibroblasts were plated out at a density of 10^5 cells/well in Falcon 3008 multiwell plates in complete maintenance medium containing 10% FCS. After cells reached confluency (72 hr), the medium was changed daily for 3 days, each time being replaced with serum-free maintenance medium containing fresh ascorbic acid. Samples (50 μl) were added to triplicate wells containing 450 μl serum-free MEM supplemented with fresh ascorbic acid and [^3 H]-proline (sp. act. 20 Ci/mmole), but no non-essential amino acids. After an additional 24 hr of culture, supernatants were reacted with protease-free bacterial collagenase to digest all collagen. Similar aliquots of unreacted supernatants and bacterial collagenase-treated supernatants were precipitated with cold 10% trichloroacetic acid (TCA) and were centrifuged for 5 minutes in a Beckman microfuge. Aliquots of the supernatants, after TCA precipitated proteins were pelleted, were placed in vials containing Hydrofluor and then were counted in a scintillation counter. CPM from TCA precipitated supernatants not reacted with bacterial collagenase were subtracted from each culture. The resulting CPM was a reflection of the collagen produced by that culture.
A modified Peterofsky-Diegelmann assay was used to screen peptide samples for their ability to stimulate or inhibit collagen production. Low passage (4-12 subpassages) infant foreskin fibroblast were plated out at a density of 10^5 cells/well of Falcon 3008 multiwell plates in complete maintenance medium containing 10% FCS. After cells reached confluency (72 hr) the medium was changed daily for 3 days, each time being replaced with serum-free maintenance medium containing fresh ascorbic acid. Samples ([…]) were added to triplicate wells containing […] serum free MEM supplemented with fresh ascorbic acid and [^3 H]-proline (sp. act. 20 Ci/mmole), but no non-essential amino acids. After an additional 24 hours of culture, supernatants were reacted with protease-free bacterial collagenase to digest all collagen. Similar aliquots of unreacted supernatants and bacterial collagenase-treated supernatants were precipitated with cold 10% trichloroacetic acid (TCA) and were centrifuged for 5 minutes in a Beckman microfuge. Aliquots of the supernatants, after TCA precipitated proteins were pelleted, were placed in vials containing Hydrofluor and then were counted in a scintillation counter. CPM from TCA precipitated supernatants not reacted with bacterial collagenase were subtracted from each culture. The resulting CPM was a reflection of the collagen produced by that culture.
Collagen production was measured following administration of the various 7-mer peptides 368-374 (SEQ ID NOs. 1-5) to fibroblasts. Peptides […] (SEQ ID NO. 1), LYYIGKT (SEQ ID NO. 2), LYYVGRT (SEQ ID NO. 3), IYYVGRN (SEQ ID NO. 4) and IYYVGRT (SEQ ID NO. 5) were synthesized by the Merrifield technique, purified by HPLC, and tested at different concentrations in the same assay for their ability to stimulate production of collagen in confluent cultures of infant foreskin fibroblasts. Collagen production was measured by incorporation of [^3 H]proline into collagenase-sensitive protein. All samples were tested in triplicate, and values represent the mean of triplicate determinations. Data are expressed as "% stimulation" of collagen production relative to control production in cultures with plain culture medium only added. […]

Row | Substance | monocyte chemotaxis / migration (in words) [1] | neutrophil chemotaxis / migration (in words) [2] | FIBROBLAST EFFECTS HLA-DR (fibroblasts) | collagen production by fibroblasts (in words) [3] | Mean Monocytes per 20 OIF + SEM ([1]; Media added to upper compartment) | Mean Monocytes per 20 OIF + SEM ([1]; TGF-β1 (50 pg/ml) added to upper compartment) | monocyte chemotaxis / migration (in words) ([1]; listed as VYYVGRK)
1 | 340-391: synthetic peptide corresponding to sequence 340-391 of TGF-β1; positive chemotactic control (VLALYNQHNPGASAAPCCVPQALEPLPIVYYVGRKPKVEQLSNMIVRSCKCS; printed: Val Leu Ala Leu Tyr Asn Gln His Asn Pro Gly Ala Ser Ala Ala Pro Cys Cys Val Pro Gln Ala Leu Glu Pro Leu Pro Ile Val Tyr Tyr Val Gly Arg Lys Pro Lys Val Glu Gln Leu Ser Asn Met Ile Val Arg Ser Cys Lys Cys Ser) [Peptide 340-391] | migrated in a dose dependent fashion | migrated in a dose dependent fashion | NE | stimulated to some degree |  |  | 
2 | PLPIVYYVGRKPKVE [Peptide 364-378, 15-mer peptide 364-378 of TGF-β1] | induced migration of fibroblasts, monocytes and neutrophils in a dose dependent fashion | induced migration of fibroblasts, monocytes and neutrophils in a dose dependent fashion | NE | stimulated to some degree |  |  | 
3 | VYYVGRK [Peptide 368-374, 7-mer corresponding to amino acids 368-374 of TGF-β1] | induced migration of fibroblasts, monocytes and neutrophils in a dose dependent fashion | induced migration of fibroblasts, monocytes and neutrophils in a dose dependent fashion | NE | stimulated to some degree; also recorded: does stimulate fibroblast chemotaxis and synthesis of collagen and hyaluronic acid | 138 ± 8 Monocytes per 20 OIF | 50 ± 5 Monocytes per 20 OIF | induced monocyte chemotaxis at all of the concentrations tested
4 | YSKVLALYNQHNPGASAAPC (YSKVLALYNQHNPGASAAPC) [Peptide 337-356] |  |  | NE | stimulated to some degree |  |  | 
